“Also recorded” adds a separate entry of the source.
How the values were obtained:
Assay type in all cases: biochemical
[1] = Kinetic parameters for the conversion of S-alkylhomocysteines; standard SAM synthase assay, photometric detection of the cleaved phosphate
Text: (§1) FIGS. 3A-3E show the rates of conversion of amino acid substrates catalyzed by the SAMS enzyme from Bacillus subtilis (FIG. 3A) and its variants I317V (FIG. 3B), I317A (FIG. 3C), I105V/I317A (FIG. 3D) or I105A/I317A (FIG. 3E) as a function of the substrate concentration. The reaction with L-methionine (open circles), D,L-methionine (closed circles), D,L-methionine-(methyl-D3) (x), D,L-ethionine (hatched circles), S-n-propyl-D,L-homocysteine (open triangles), S-n-butyl-D,L-homocysteine (closed triangles) or S-(2-methylvinyl)-D,L-homocysteine (diamonds) was assessed by spectrophotometric determination of phosphate which is released from the co-substrate ATP during the reaction.
The kinetic parameters for the conversion of S-alkylhomocysteines by Bacillus subtitlis SAM synthase and its variants as shown in Table 1 were calculated from the conversion rates of methionine and analogues as a function of the substrate concentration […] which were determined by the standard SAM synthase assay known in the art, i.e. by photometric detection of the cleaved phosphate.

[2] = Substrate spectrum: conversion of methionine and S-alkylhomocysteine derivatives by SAM synthase and variants; conditions: for substrate acceptance (which amino acid substrates are converted): in words
Text: as §1
For these studies, a series of S-alkylhomocysteines with linear (D,L-methionine-(methyl-D3), -ethionine, -propionine and -buthionine), branched (D,L-isopropionine and -isobuthionines), unsaturated (D,L-methylvinylhomocysteine) and functionalized (D,L-hydroxyethionine and -carboxymethionine) alkyl groups were synthesized from D,L-homocysteine thiolactone and tested for conversion by the cloned (wildtype) SAM synthase.
As derived from a homology model which is based on the crystal structure of the protein from E. coli (PDB code 1XRA), a hydrophobic cleft formed from two conserved isoleucine residues hinders the generation of cofactor analogues from amino acid substrates with bulky alkyl residues (FIG. 2). Accordingly, both residues were exchanged against less voluminous amino acids by site-directed mutagenesis.
To further probe the role of the proximate isoleucine residue I105 in substrate recognition, the variants I105V/I317A and I105A/I317A were generated. […] Compared to the wild-type enzyme (FIG. 3A), substrate specificity of the variant I105A/I317A (FIG. 3E) is inverted (S-n-propylhomocysteine>S-n-butylhomocysteine>ethionine>>methionine).

[3] = Time course of formation of SAM and SAM derivatives, analyzed by HPTLC; conditions: racemic amino acid 10 mM, enzyme 10 mU ml^−1; in words
Experimental: FIGS. 4A-4C show the formation of SAM and SAM derivatives by the SAM synthase enzyme from Bacillus subtilis (FIG. 4A) or its variants I317V (FIG. 4B) and I317A (FIG. 4C). The conversion of the L-enantiomer of methionine (closed circles), ethionine (hatched circles), S-n-propylhomocysteine (open triangles) and S-n-butylhomocysteine (closed triangles) from the corresponding racemic amino acid (10 mM) was performed in the presence of equal amounts of enzyme (10 mU ml^−1). The reactions were analyzed by HPTLC.
The suitability of the wild-type protein and of variants with appropriate substrate specificity (I317V and I317A) for the synthesis of SAM and analogues was evaluated by high-performance thin-layer chromatography. Since the enzymes were not inhibited by the D-enantiomer of the amino acid substrates, methionine and its derivatives could be advantageously applied as racemic mixture of its stereoisomeres in these reactions. […] Accordingly, transformation of methionine and ethionine by SAMS-I317V in preparative synthetic reactions led to high conversion rates for the amino acid substrates. The syntheses were performed similar to the kinetic experiments but in larger scale (200 μmol). After prolonged incubation (18 hours) to reach maximum product yield, 84 and 89% of the L-amino acid was converted. […]

[4] = Preparative synthetic reactions (200 μmol): conversion of the L-amino acid; conditions: for conversion: 8 hours; for L-amino acid converted: 18 hours, 200 μmol scale
Experimental: The suitability of the wild-type protein and of variants with appropriate substrate specificity (I317V and I317A) for the synthesis of SAM and analogues was evaluated by high-performance thin-layer chromatography. Since the enzymes were not inhibited by the D-enantiomer of the amino acid substrates, methionine and its derivatives could be advantageously applied as racemic mixture of its stereoisomeres in these reactions. […] Accordingly, transformation of methionine and ethionine by SAMS-I317V in preparative synthetic reactions led to high conversion rates for the amino acid substrates. The syntheses were performed similar to the kinetic experiments but in larger scale (200 μmol). After prolonged incubation (18 hours) to reach maximum product yield, 84 and 89% of the L-amino acid was converted. In the production of the n-propyl- and n-butyl analogues of SAM by the variant I317A, 43% and 28% of conversion could be reached after 8 hours of reaction time. After product purification by cation exchange chromatography on SP-Sephadex C-25, SAM and its homologs could be recovered in final yields of 25, 17, 8 and 11%, respectively. As proven by ^1H NMR, the enzymatically produced SAM contained a high excess (≧90%) of the biologically active (S,S)-epimer.

[5] = Activity of further position 317 SAM synthase variants (Example 4)
Text: The influence of position 317 on catalytic turnover and its crucial role in determination of substrate spectrum was additionally confirmed by introduction of other small- and medium-sized amino acid residues.

[6] = substrate S-n-butyl-D,L-homocysteine
[7] = substrate S-n-propyl-D,L-homocysteine
[8] = substrate S-(2-methylvinyl)-D,L-homocysteine
[9] = substrate D,L-methionine-(methyl-D3)

I105A/I317A: I105A/I317A SAM synthase variant (SEQ ID NO: 4)
S0.5 ([1]; substrate D,L-ethionine): 3.91 ± 0.27 mM | Vmax ([1]; substrate D,L-ethionine): 3.0 ± 1.8 nmol/min/mg | h ([1]; substrate D,L-ethionine): 2.9 ± 0.4 | Vmax ([1]; substrate D,L-methionine): 0.8 ± 0.2 nmol/min/mg | S0.5 [1, 6]: =10.0 mM | Vmax [1, 6]: =4.0 ± 0.2 nmol min^-1 mg^-1 | h [1, 6]: 0.8 ± 0.1 | S0.5 [1, 7]: =10.0 mM | Vmax [1, 7]: =10.8 ± 0.1 nmol min^-1 mg^-1 | h [1, 7]: 1.0 ± 0.1 | substrate specificity (rank order) ([2]; FIG. 3E, compared to wild-type): S-n-propylhomocysteine>S-n-butylhomocysteine>ethionine>>methionine | substrate acceptance (which amino acid substrates are converted) [2]: acceptance of the artificial long-chain substrates only; also recorded: prefer long-chain substrates

I105V/I317A: I105V/I317A SAM synthase variant (SEQ ID NO: 6)
S0.5 ([1]; substrate D,L-ethionine): 4.25 ± 0.20 mM | Vmax ([1]; substrate D,L-ethionine): 5.7 ± 0.3 nmol/min/mg | h ([1]; substrate D,L-ethionine): 4.6 ± 0.8 | S0.5 ([1]; substrate D,L-methionine): 3.77 ± 1.02 mM | Vmax ([1]; substrate D,L-methionine): 17.0 ± 2.0 nmol/min/mg | h ([1]; substrate D,L-methionine): 1.0 ± 0.1 | S0.5 [1, 6]: 4.20 ± 0.41 mM | Vmax [1, 6]: 11.9 ± 0.9 nmol/min/mg | h [1, 6]: 2.0 ± 0.2 | S0.5 [1, 7]: 1.86 ± 0.41 mM | Vmax [1, 7]: 17.7 ± 1.5 nmol/min/mg | h [1, 7]: 1.0 ± 0.1 | substrate acceptance (which amino acid substrates are converted) [2]: prefer long-chain substrates

I317A: I317A SAM synthase variant (SEQ ID NO: 2) of Bacillus subtilis SAM synthase
S0.5 ([1]; substrate D,L-ethionine): 2.99 ± 0.23 mM | Vmax ([1]; substrate D,L-ethionine): 44.1 ± 1.6 nmol/min/mg | h ([1]; substrate D,L-ethionine): 1.2 ± 0.1 | S0.5 ([1]; substrate D,L-methionine): 0.92 ± 0.05 mM | Vmax ([1]; substrate D,L-methionine): 37.7 ± 0.8 nmol/min/mg | h ([1]; substrate D,L-methionine): 1.1 ± 0.1 | S0.5 ([1]; substrate L-methionine): 0.46 ± 0.02 mM | Vmax ([1]; substrate L-methionine): 34.8 ± 0.5 nmol/min/mg | h ([1]; substrate L-methionine): 1.3 ± 0.1 | S0.5 [1, 8]: 0.79 ± 0.04 mM | Vmax [1, 8]: 22.4 ± 0.4 nmol/min/mg | h [1, 8]: 1.2 ± 0.1 | S0.5 [1, 6]: 3.56 ± 0.45 mM | Vmax [1, 6]: 35.4 ± 2.6 nmol/min/mg | h [1, 6]: 1.4 ± 0.1 | S0.5 [1, 7]: 0.90 ± 0.05 mM | Vmax [1, 7]: 34.2 ± 0.7 nmol/min/mg | h [1, 7]: 1.1 ± 0.1 | substrate acceptance (which amino acid substrates are converted) [2]: active on ethionine, propionine, buthionine and the unsaturated D,L-methylvinylhomocysteine | product inhibition by SAM [3]: much less affected by product inhibition; also recorded: less pronounced | conversion ([4]; production of n-butyl analogue of SAM): 28% | conversion ([4]; production of n-propyl analogue of SAM): 43%

I317C: Bacillus subtilis SAM synthase with position 317 substituted by cysteine; tolerably active enzyme
activity (conversion) ([5]; 5 mM D,L-buthionine): 6.0 ± 0.3 nmol/min/mg | activity (conversion) ([5]; 5 mM D,L-ethionine): 16.4 ± 0.7 nmol/min/mg | activity (conversion) ([5]; 5 mM D,L-methionine): 59.4 ± 0.4 nmol/min/mg | activity (conversion) ([5]; 5 mM D,L-propionine): 8.4 ± 0.3 nmol/min/mg

I317V: I317V SAM synthase variant (SEQ ID NO: 3) of Bacillus subtilis SAM synthase
S0.5 ([1]; substrate D,L-ethionine): 10.94 ± 2.70 mM | Vmax ([1]; substrate D,L-ethionine): 51.2 ± 9.1 nmol/min/mg | h ([1]; substrate D,L-ethionine): 1.3 ± 0.1 | S0.5 ([1]; substrate D,L-methionine): 1.71 ± 0.12 mM | Vmax ([1]; substrate D,L-methionine): 446.2 ± 13.8 nmol/min/mg | h ([1]; substrate D,L-methionine): 1.3 ± 0.1 | S0.5 ([1]; substrate L-methionine): 0.72 ± 0.04 mM | Vmax ([1]; substrate L-methionine): 408.0 ± 7.7 nmol/min/mg | h ([1]; substrate L-methionine): 1.2 ± 0.1 | substrate acceptance (which amino acid substrates are converted) [2]: also converts ethionine | L-amino acid converted ([4]; ethionine): 89% | L-amino acid converted ([4]; methionine): 84%

Wild-type: wildtype Bacillus subtilis S-Adenosylmethionine (SAM) synthase, SEQ ID NO: 1, recombinantly expressed in E. coli BL21 (DE3) [reference compound]
inhibition by the D-enantiomer of methionine ([1]; FIG. 3A, in words): not inhibited by the D-enantiomer of methionine | S0.5 ([1]; substrate D,L-methionine): 1.92 ± 0.12 mM | Vmax ([1]; substrate D,L-methionine): 90.8 ± 1.6 nmol/min/mg | h ([1]; substrate D,L-methionine): 1.7 ± 0.2 | S0.5 [1, 9]: 1.86 ± 0.07 mM | Vmax [1, 9]: 79.8 ± 2.3 nmol/min/mg | h [1, 9]: 2.2 ± 0.2 | S0.5 ([1]; substrate L-methionine): 1.04 ± 0.14 mM | Vmax ([1]; substrate L-methionine): 93.2 ± 3.1 nmol/min/mg | h ([1]; substrate L-methionine): 1.1 ± 0.1 | substrate acceptance (which amino acid substrates are converted) [2]: did not accept any of these methionine derivatives | product inhibition by SAM [3]: inhibited by its product SAM
